Where two headings read alike, the source gives them in different places.
Key:
L. major [1] = assay: ChEMBL dataset of pIC50 values against L. major used for the RF model (Table S1); assay type: cell-based, Leishmania major; note: call rule not given here
Excerpt: From the ChEMBL database (https://www.ebi.ac.uk/chembl/, accessed on 10 January 2021), we selected a diverse set of 1085 structures that were initially classified according to their predicted activity against L. major.
Excluding these structures minimized the differences in activity values resulting from errors and differences in experimental protocols. […] Standardizer software [JChem, version 16.11.28 (2016), calculation module developed by ChemAxon, https://www.chemaxon.com/, accessed on 20 January 2021] was used to canonize all simplified molecular-input line-entry system (SMILES) codes. After duplicate structures were removed, those with higher pIC50 values were eliminated, facilitating the generation of more restrictive models.

L. major [2] = system: L. major; parameters: method as in ChEMBL; details: ref ChEMBL, cited from earlier work
[3] = Active/Inactive class assigned to the ChEMBL pIC50 value for Random forest model construction, ref ChEMBL
[4] = ChemBL structures with pIC50 values used for Random forest model construction, L. major
[5] = Active/Inactive class assigned to ChemBL structures for Random forest model construction (Table S1)
[6] = ChemBL structures with pIC50 values used for Random forest model construction (Table S1)

Compound	Outcome (L. major [1]; [3])	pIC50 Value (L. major [2]; [4])	Outcome (L. major [1]; [5])	pIC50 Value (L. major [2]; [6])
COc1cccc2c(-c3ccc4c(c3O)[C@@H](C)N[C@H](C)C4)c(C)cc(OC)c12 [CHEMBL410597]	Inactive	4.33		
CNc1ccc(Nc2c3ccccc3nc3ccccc23)cc1 [CHEMBL415467]			Active	5.82
CCCCCCN(C)c1ccc(Nc2c3ccccc3nc3ccccc23)cc1 [CHEMBL415472]			Active	6.52
CCCCCCNc1ccc(Nc2c3ccc(Cl)cc3nc3ccc(OC)cc23)cc1 [CHEMBL420434]			Active	6.70
COc1cc2c(c(OC)c1)C(C)=[N+](c1ccc3cc(C)cc(OC)c3c1O)[C@@H](C)C2.O=C([O-])C(F)(F)F [CHEMBL426747]			Active	5.91
COc1ccc(/C=C/C(=O)c2ccc(O)cc2)c(OC)c1 [CHEMBL434066]			Active	5.40
CNc1ccc(Nc2c3ccccc3nc3ccccc23)cc1OC(C)C [CHEMBL439951]			Active	5.89
C=C[C@@]1(C)Cc2c(OC(C)=O)ccc(OC(C)=O)c2C[C@H]1C(=C)C [CHEMBL442439]			Active	5.37
O=[N+]([O-])c1ccc(-c2nnc(N3CCN(c4ccccc4)CC3)s2)o1 [CHEMBL448103]			Active	7.00
CO[C@H]1C[C@@H](C)[C@H]2[C@H](C[C@@]3(C)[C@@H]4C[C@H](O)[C@H]5C(C)(C)[C@@H](O[C@@H]6OC[C@@H](O)[C@@H](O)[C@H]6O)CC[C@@]56C[C@@]46CC[C@]23C)O1 [CHEMBL450438]	Inactive	4.03		
C=C[C@H](/C=C\c1ccc(O)cc1)c1ccc(O)cc1 [CHEMBL451713]	Inactive	4.92		
COCCOC(=O)C1=C(C)NC(C)=C(C(=O)OC/C=C/c2ccccc2)C1c1cccc([N+](=O)[O-])c1 (stereo not drawn) [CHEMBL452076]	Inactive	4.67		
C/C=C/C1=C(OC)C(=O)C(OC)=C(OC)C1=O [CHEMBL454996]	Inactive	4.14		
C[C@@H]1CC[C@@]2(OC1)O[C@H]1C[C@H]3C4=CCC5=CC(=O)[C@@H](O)C[C@]5(C)[C@H]4C[C@H](O)[C@]3(C)[C@H]1[C@@H]2C [CHEMBL455616]	Inactive	4.15		
O=C(c1ccccc1Cl)N1CCN(c2nnc(-c3ccc([N+](=O)[O-])o3)s2)CC1 [CHEMBL458179]	Inactive	4.97		
O=C(c1cccc(Cl)c1)N1CCN(c2nnc(-c3ccc([N+](=O)[O-])o3)s2)CC1 [CHEMBL458527]	Inactive	4.88		
O=C(c1ccc(Cl)cc1)N1CCN(c2nnc(-c3ccc([N+](=O)[O-])o3)s2)CC1 [CHEMBL458528]	Inactive	4.58		
O=C(c1cccs1)N1CCN(c2nnc(-c3ccc([N+](=O)[O-])o3)s2)CC1 [CHEMBL458529]	Inactive	4.72		
O=C(c1ccc(Br)s1)N1CCN(c2nnc(-c3ccc([N+](=O)[O-])o3)s2)CC1 [CHEMBL458771]	Inactive	4.88		
O=C(c1ccccc1Cl)N1CCN(c2nnc(-c3ccc([N+](=O)[O-])s3)s2)CC1 [CHEMBL458772]	Inactive	4.46		
O=C(c1cccc(Cl)c1)N1CCN(c2nnc(-c3ccc([N+](=O)[O-])s3)s2)CC1 [CHEMBL458778]	Inactive	4.30		
O=C(c1cccs1)N1CCN(c2nnc(-c3ccc([N+](=O)[O-])s3)s2)CC1 [CHEMBL464864]	Inactive	4.55		
O=C(c1ccc(Cl)s1)N1CCN(c2nnc(-c3ccc([N+](=O)[O-])s3)s2)CC1 [CHEMBL464870]	Inactive	4.62		
Cc1cccc2oc(=O)c3c(c12)O[C@@H](C)[C@@]3(C)CC(=O)[C@@H]1OC1(C)C [CHEMBL465559]	Inactive	4.43		

Compound	Outcome (L. major [1]; [3])	pIC50 Value (L. major [2]; [4])	Outcome (L. major [1]; [5])	pIC50 Value (L. major [2]; [6])
Clc1ccccc1-c1nc2ccccc2[nH]1 [CHEMBL473162]			Active	5.47
Clc1ccc(-c2nc3ccccc3[nH]2)cc1 [CHEMBL473163]			Active	5.50
O=[N+]([O-])c1ccc(-c2nc3ccccc3[nH]2)cc1 [CHEMBL473361]			Active	5.53
COc1cc(OC)c2c(C)[n+](-c3cccc4c3C(=O)c3ccccc3C4=O)c(C)cc2c1.F[B-](F)(F)F [CHEMBL474599]	Inactive	4.00		
Cc1nc(-c2ccccn2)nc(N2CCC(Cc3ccccc3)C2)c1Cl (stereo not drawn) [CHEMBL474899]	Active	5.05		
O=[N+]([O-])c1cccc(-c2nc3ccccc3[nH]2)c1 [CHEMBL475377]			Active	5.47
CCOC(=O)C1=C(C)NC(C)=C(C(=O)OC)C1c1cccc([N+](=O)[O-])c1 (stereo not drawn) [CHEMBL475534]	Inactive	4.48		
COc1cc(OC)c2c(C)[n+](-c3cccc4ccccc34)c(C)cc2c1.F[B-](F)(F)F [CHEMBL479641]			Active	5.79
CCc1ccc(-[n+]2c(C)cc3cc(OC)cc(OC)c3c2C)cc1.F[B-](F)(F)F [CHEMBL479649]	Active	5.26		
COc1cc(OC)c2c(C)[n+](-c3ccc4ccccc4c3)c(C)cc2c1.F[B-](F)(F)F [CHEMBL479838]			Active	5.47
COc1cc2c(c(OC)c1)C(C)N(c1ccc(OC)c3c(OC)cc(C)cc13)[C@@H](C)C2 (stereo partly drawn) [CHEMBL479849]	Inactive	4.19		
COc1cc2c(c(OC)c1)C(C)N(c1ccc(OC)c3c(OC)cc(C)cc13)[C@H](C)C2 (stereo partly drawn) [CHEMBL479850]	Inactive	4.18		
COc1cc(OC)c2c(C)[n+](-c3ccc(O)cc3)c(C)cc2c1.O=C([O-])C(F)(F)F [CHEMBL480760]	Inactive	4.80		
COc1cc(OC)c2c(C)[n+](-c3ccc(OC(C)=O)cc3)c(C)cc2c1.F[B-](F)(F)F [CHEMBL480761]	Inactive	4.00		
COc1cc(OC)c2c(C)[n+](-c3cccc(C)c3C)c(C)cc2c1.F[B-](F)(F)F [CHEMBL480823]	Inactive	4.94		
COc1cc(OC)c2c(C)[n+](-c3c(C)cc(C)cc3C)c(C)cc2c1.F[B-](F)(F)F [CHEMBL480824]			Active	5.83
COc1cc(OC)c2c(C)[n+](-c3ccc(C(C)C)cc3)c(C)cc2c1 [CHEMBL481022]			Active	5.70
CCCCc1ccc(-[n+]2c(C)cc3cc(OC)cc(OC)c3c2C)cc1.F[B-](F)(F)F [CHEMBL481023]			Active	5.57
COc1ccc(-[n+]2c(C)cc3cc(OC)cc(OC)c3c2C)cc1.F[B-](F)(F)F [CHEMBL481565]	Inactive	4.00		
COc1cc(OC)c2c(C)[n+](-c3ccc(Cl)cc3)c(C)cc2c1.F[B-](F)(F)F [CHEMBL481566]	Inactive	4.72		
COc1cc2c(c(OC)c1)C(C)N(c1ccc(C(C)C)cc1)C(C)C2 (stereo not drawn) [CHEMBL481808]	Inactive	4.30		
COc1cc(OC)c2c(C)[n+](-c3ccc(C#N)cc3)c(C)cc2c1.O=C([O-])C(F)(F)F [CHEMBL481906]	Inactive	4.00		
COc1cc(OC)c2c(C)[n+](-c3ccc4ncccc4c3)c(C)cc2c1.O=C([O-])C(F)(F)F [CHEMBL481907]	Inactive	4.00		
COc1cc(OC)c2c(C)[n+](-c3ccc4cc5ccccc5cc4c3)c(C)cc2c1.F[B-](F)(F)F [CHEMBL482393]			Active	6.17
